Measurements: ChEMBL document CHEMBL5375988, “AcGlcAs: A Novel P53-Targeting Arsenical with Potent Cellular Uptake and Cancer Cell Selectivity” (J Med Chem, 2023)
Calls of active or inactive are those of the source. No cut-off for these calls is given here.

Key:
[1] = system: U-937; experiment: Induction of extrinsic apoptosis in human U-937 cells overexpressing p53-V272M mutant assessed as upregulation of DR5 gene expression by RT-qPCR analysis; type: functional, cell-based
[2] = system: Cellular tumor antigen p53 (Homo sapiens), P04637 [V272M]; experiment: Restoration of p53-V272M mutant transcriptional activity on PUMA promoter in human NCI-H1299 cells at 2.5 to 10 uM pretreated with chlorpromazine for 30 mins followed by compound addition for 10 mins and further incubation in fresh medium for 24 hrs by firefly/renilla based luciferase reporter assay; type: cell-based; conditions: dose 2.5-10 µM
[3] = Drug uptake in human U-937 cells harboring p53-V272M mutant at 10 uM measured after 10 mins by ICP-MS analysis; type: ADME, cell-based; conditions: u-937, 10 min
[4] = system: HL-60; experiment: Upregulation of MDM2 mRNA expression in human HL-60 cells overexpressing p53-V272M mutant at 2 uM pretreated for 1 hr followed by culturing in fresh medium for 8 hrs by RT-qPCR analysis; type: functional, cell-based
[5] = target: T1, PML-RARalpha (Homo sapiens) (UniProt P10276+P29590); experiment: Induction of PML/RARalpha degradation in human NB4 cells assessed as downregulation of MPO mRNA expression incubated for 1 hrs followed by replacement with fresh culture medium for 6 hrs by RT-qPCR analysis; type: cell-based; conditions: dose 0.3-3 µM
T1 sequence (P10276 whole entry, looked up): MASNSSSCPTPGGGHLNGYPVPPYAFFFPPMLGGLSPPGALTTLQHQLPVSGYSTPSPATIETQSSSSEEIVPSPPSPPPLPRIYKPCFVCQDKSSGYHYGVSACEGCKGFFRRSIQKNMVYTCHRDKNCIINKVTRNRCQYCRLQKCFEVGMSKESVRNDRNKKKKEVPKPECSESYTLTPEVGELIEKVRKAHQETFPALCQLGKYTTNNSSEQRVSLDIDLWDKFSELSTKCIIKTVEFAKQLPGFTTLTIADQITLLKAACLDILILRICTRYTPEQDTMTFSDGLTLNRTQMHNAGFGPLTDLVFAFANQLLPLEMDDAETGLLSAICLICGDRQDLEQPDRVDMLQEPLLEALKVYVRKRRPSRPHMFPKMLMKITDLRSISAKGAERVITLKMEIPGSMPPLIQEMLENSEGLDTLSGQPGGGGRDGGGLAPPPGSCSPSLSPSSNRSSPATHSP
T1 sequence (P29590 whole entry, looked up): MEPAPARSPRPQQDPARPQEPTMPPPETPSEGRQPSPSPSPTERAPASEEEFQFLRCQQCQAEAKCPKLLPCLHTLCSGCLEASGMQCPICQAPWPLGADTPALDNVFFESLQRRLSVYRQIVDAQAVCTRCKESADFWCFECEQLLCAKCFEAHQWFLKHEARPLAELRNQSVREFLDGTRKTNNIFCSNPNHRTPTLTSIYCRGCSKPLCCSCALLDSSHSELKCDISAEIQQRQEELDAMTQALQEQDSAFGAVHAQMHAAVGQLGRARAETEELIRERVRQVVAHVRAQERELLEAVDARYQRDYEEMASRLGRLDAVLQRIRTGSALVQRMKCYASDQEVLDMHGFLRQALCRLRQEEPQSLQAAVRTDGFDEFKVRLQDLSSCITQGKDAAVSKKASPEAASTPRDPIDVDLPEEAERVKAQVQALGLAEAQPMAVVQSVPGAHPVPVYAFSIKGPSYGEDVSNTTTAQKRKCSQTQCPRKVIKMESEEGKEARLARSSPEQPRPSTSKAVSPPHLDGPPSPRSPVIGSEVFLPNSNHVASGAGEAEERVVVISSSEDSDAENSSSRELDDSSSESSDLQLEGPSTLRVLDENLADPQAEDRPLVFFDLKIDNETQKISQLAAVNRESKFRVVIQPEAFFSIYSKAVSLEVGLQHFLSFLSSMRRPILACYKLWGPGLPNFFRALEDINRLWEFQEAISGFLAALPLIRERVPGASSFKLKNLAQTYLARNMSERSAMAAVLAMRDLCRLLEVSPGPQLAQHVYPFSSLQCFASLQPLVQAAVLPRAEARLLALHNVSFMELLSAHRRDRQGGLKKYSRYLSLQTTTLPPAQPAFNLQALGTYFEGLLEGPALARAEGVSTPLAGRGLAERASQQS

[6] = Plasma stability in dog assessed as half life at […] measured upto 120 mins by LC-MS analysis; type: ADME, cell-free, Canis lupus familiaris
[7] = system: U-937; experiment: Induction of extrinsic apoptosis in human U-937 cells overexpressing p53-V272M mutant assessed as upregulation of FAS gene expression by RT-qPCR analysis; type: functional, cell-based
[8] = target: T1, PML-RARalpha (Homo sapiens); experiment: Induction of PML/RARalpha degradation in human NB4 cells assessed as downregulation of FCGR1B mRNA expression incubated for 1 hrs followed by replacement with fresh culture medium for 6 hrs by RT-qPCR analysis; type: cell-based; conditions: dose 0.3-3 µM
[9] = system: U-937; experiment: Upregulation of MDM2 mRNA expression in human U-937 cells overexpressing p53-V272M mutant pretreated for 1 hr followed by culturing in fresh medium for 4 hrs by RT-qPCR analysis; type: functional, cell-based
[10] = system: NB-4; experiment: Induction of apoptosis in human NB4 cells assessed as early apoptotic cells at 27 uM preincubated for 1 hrs followed by replacement with fresh culture medium and measured after 24 hrs by Annexin V-FITC/7AAD staining based flow cytometry assay (reference value: 2.15%); type: functional
[11] = Drug accumulation in ICR mouse lungs at 10 mg/kg, iv measured upto 24 hrs by ICP-MS analysis; type: ADME, organism-based, Lung; conditions: in vivo
[12] = Drug uptake in human U-937 cells assessed as fold increase in arsenic accumulation at 10 uM incubated for 10 mins by ICP-MS analysis; type: ADME, cell-based; conditions: u-937, 10 min
[13] = Clearance in ICR mouse at 10 mg/kg, iv measured upto 24 hrs by ICP-MS analysis relative to hepatic blood flow; type: ADME, organism-based; conditions: in vivo
[14] = system: U-937; experiment: Antitumor activity against human U-937 cells harboring p53-V272M mutant xenografted in NSG mouse assessed as delay in tumor progression at 10 mg/kg, iv administered for 9 days by bioluminescence imaging based luciferase analysis; type: functional, organism-based; conditions: time 9.0 day
[15] = target: T1, PML-RARalpha (Homo sapiens); experiment: Induction of PML/RARalpha degradation in human NB4 cells assessed as residual protein level at 9 uM incubated for 1 hrs followed by replacement with fresh culture medium and measured after 16 hrs by Western blot analysis (reference value: 1); type: cell-based
[16] = system: NB-4; experiment: Induction of apoptosis in human NB4 cells assessed as viable cells at 9 uM preincubated for 1 hrs followed by replacement with fresh culture medium and measured after 24 hrs by Annexin V-FITC/7AAD staining based flow cytometry assay (reference value: 94%); type: functional; conditions: read-out: Activity
[17] = Drug uptake in human MDA-MB-231 cells assessed as fold increase in arsenic accumulation at 10 uM incubated for 10 mins by ICP-MS analysis; type: ADME, cell-based; conditions: mda-mb-231, 10 min
[18] = system: NB-4; experiment: Inhibition of colony formation in human NB4 cells at 1 to 9 uM pretreated for 1 hr followed by washout and cultured in soft agar containing fresh medium for 18 days by crystal violet staining based assay; type: functional, cell-based; conditions: dose 1-9 µM
[19] = system: NB-4; experiment: Induction of apoptosis in human NB4 cells assessed as late apoptotic cells at 9 uM preincubated for 1 hrs followed by replacement with fresh culture medium and measured after 24 hrs by Annexin V-FITC/7AAD staining based flow cytometry assay (reference value: 3.71%); type: functional
[20] = system: U-937; experiment: Induction of cell cycle arrest in human U-937 cells overexpressing p53-V272M mutant assessed as upregulation of p21 encoding CDKN1A gene expression by RT-qPCR analysis; type: functional, cell-based
[21] = target: T1, PML-RARalpha (Homo sapiens); experiment: Induction of PML/RARalpha degradation in human NB4 cells assessed as residual protein level at 1 uM incubated for 1 hrs followed by replacement with fresh culture medium and measured after 16 hrs by Western blot analysis (reference value: 1); type: cell-based
[22] = system: U-937; experiment: Induction of apoptosis in human U-937 cells harboring p53-V272M mutant assessed as increase in late apoptotic cells at 0.5 to 8 uM pretreated for 1 hr followed by culturing in fresh medium for 24 hrs by Annexin V-FITC/7AAD staining based flow cytometry analysis; type: functional, cell-based; conditions: dose 0.5-8 µM
[23] = system: U-937; experiment: Induction of extrinsic apoptosis in human U-937 cells overexpressing p53-V272M mutant assessed as upregulation of PERP gene expression by RT-qPCR analysis; type: functional, cell-based
[24] = system: NB-4; experiment: Induction of apoptosis in human NB4 cells assessed as viable cells at 27 uM preincubated for 1 hrs followed by replacement with fresh culture medium and measured after 24 hrs by Annexin V-FITC/7AAD staining based flow cytometry assay (reference value: 94%); type: functional; conditions: read-out: Activity
[25] = Drug uptake in human HepG2 cells assessed as arsenic localization in nucleus at 10 uM incubated for 1 hr by ICP-MS analysis; type: ADME, cell-based; conditions: hepg2, 1 h
[26] = system: NB-4; experiment: Induction of granulocytic differentiation in human NB4 cells assessed as CD11b positive cells at 3 uM incubated for 1 hrs followed by replacement with fresh culture medium for 48 hrs by flow cytometry analysis relative to control; type: functional
[27] = system: U-937; experiment: Antitumor activity against GFP-tagged human U-937 cells harboring p53 V272M mutant xenografted in M-NSG mouse assessed as decrease in leukemia cell population in bone marrow at 25 mg/kg, ip administered for 9 days starting from 7 days post inoculation and measured on day 2,6,and 9 by FACS analysis; type: functional, organism-based; conditions: time 9.0 day
[28] = Drug uptake in human HPDE6c7 cells at 10 uM measured after 10 mins by ICP-MS analysis; type: ADME, cell-based; conditions: hpde6c7, 10 min
[29] = system: Cellular tumor antigen p53 (Homo sapiens), P04637 [V272M]; experiment: Thermostabilization of recombinant p53 V272M mutant (unknown origin) […] assessed as increase in melting temperature at 1:15 ratio in HEPES at pH 7.5 by DSF analysis
[30] = Plasma stability in monkey assessed as half life at […] measured upto 120 mins by LC-MS analysis; type: ADME, cell-free, Macaca mulatta; conditions: rhesus monkey
[31] = target: T1, PML-RARalpha (Homo sapiens); experiment: Induction of PML/RARalpha degradation in HEK293T cells at 3 uM incubated for 1 hrs followed by replacement with fresh culture medium and measured after 16 hrs by immunofluorescence analysis; type: cell-based
[32] = system: NB-4; experiment: Induction of apoptosis in human NB4 cells assessed as late apoptotic cells at 3 uM preincubated for 1 hrs followed by replacement with fresh culture medium and measured after 24 hrs by Annexin V-FITC/7AAD staining based flow cytometry assay (reference value: 3.71%); type: functional

CC(=O)OC[C@H]1O[C@@H](S[As]2SCCS2)[C@H](OC(C)=O)[C@@H](OC(C)=O)[C@@H]1OC(C)=O
Activity [1]: Active
Activity [2]: inactive
Drug uptake [3]: Active
Activity [4]: Active
Activity [5]: Dose-Dependent Effect
half-life [6]: 3.06 min
Activity [7]: Active
Activity [8]: Dose-Dependent Effect
Activity [9]: Active
Activity [10]: 15.6%
Drug uptake [11]: Active
fold change (FC) [12]: 19
CLH [13]: 13.7%
Activity [14]: Active
Activity [15]: 0.02
viability at 9 µM [16]: 85.6%
fold change (FC) [17]: 19
inhibition [18]: Active
Activity [19]: 6.71%
Activity [20]: Active
Activity [21]: 0.26
Activity [22]: Active
Activity [23]: inactive
viability at 27 µM [24]: 54.1%
Drug uptake [25]: Active
Activity [26]: 32.9%
Activity [27]: Active
Drug uptake [28]: Active
Activity [29]: inactive
half-life [30]: 11.3 min
Activity [31]: Active
Activity [32]: 4.45%
